Key:
TLR7 = target: T1, TLR7 (Homo sapiens, UniProt Q9NYK1); assay: Human PBMC cell-based assay, TLR7 agonist GS-986 stimulation, cytokine (IL-6 and IFNα) readout; settings: human PBMCs, GS-986 400 nM, 6 hours; Table 26; read-out: TLR-7 EC50
T1 construct: lymphocytes, monocytes and dendritic cells that express TLR7, TLR8 and TLR9; endogenous in cells; host or cells: human PBMCs from healthy donors
T1 sequence (Q9NYK1 27-1049): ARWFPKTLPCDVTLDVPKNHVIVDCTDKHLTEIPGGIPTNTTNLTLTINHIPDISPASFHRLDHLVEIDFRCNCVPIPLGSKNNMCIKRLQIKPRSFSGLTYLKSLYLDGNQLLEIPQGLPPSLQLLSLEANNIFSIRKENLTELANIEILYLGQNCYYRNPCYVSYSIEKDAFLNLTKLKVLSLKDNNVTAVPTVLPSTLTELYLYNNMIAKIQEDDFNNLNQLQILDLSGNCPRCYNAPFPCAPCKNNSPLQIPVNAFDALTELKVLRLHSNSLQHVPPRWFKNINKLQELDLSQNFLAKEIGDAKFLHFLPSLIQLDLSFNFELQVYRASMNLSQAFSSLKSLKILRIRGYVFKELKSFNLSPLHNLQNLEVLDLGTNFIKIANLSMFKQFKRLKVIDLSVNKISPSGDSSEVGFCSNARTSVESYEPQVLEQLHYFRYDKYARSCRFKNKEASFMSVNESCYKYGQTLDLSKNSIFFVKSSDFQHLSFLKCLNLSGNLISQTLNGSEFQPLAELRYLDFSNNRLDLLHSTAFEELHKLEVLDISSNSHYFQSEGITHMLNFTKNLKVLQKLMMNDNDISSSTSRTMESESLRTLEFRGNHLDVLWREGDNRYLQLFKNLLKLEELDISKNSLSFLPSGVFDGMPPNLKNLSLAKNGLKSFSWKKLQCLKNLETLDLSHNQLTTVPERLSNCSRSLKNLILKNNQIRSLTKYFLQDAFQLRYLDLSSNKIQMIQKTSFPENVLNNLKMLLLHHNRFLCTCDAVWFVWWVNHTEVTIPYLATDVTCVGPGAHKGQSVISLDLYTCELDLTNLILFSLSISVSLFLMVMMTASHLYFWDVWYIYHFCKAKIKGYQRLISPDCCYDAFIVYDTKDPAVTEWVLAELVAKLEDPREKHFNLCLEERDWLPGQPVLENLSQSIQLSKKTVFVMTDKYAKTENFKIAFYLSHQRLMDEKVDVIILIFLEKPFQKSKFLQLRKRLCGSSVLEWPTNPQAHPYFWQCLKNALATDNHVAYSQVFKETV
From the text: (§1) Human peripheral blood mononuclear cells (PBMCs) consist of lymphocytes, monocytes and dendritic cells that express TLR7, TLR8 and TLR9. These cells respond to TLR7, TLR8 and TLR9 ligand stimulation and produce cytokines and chemokines in vitro and in vivo. Human PBMCs are therefore suitable to be used in a cell-based assay to assess the in vitro potency of a TLR 7, 8, and/or 9 antagonist. The result is expected to be more translatable to the pharmacodynamics response in vivo than cell line-based assays.
(§2) Cryopreserved human PBMCs from healthy donors were thawed and resuspended in RPMI-1640 media with L-glutamine (Corning) supplemented with 10% Fetal Bovine Serum (Hyclone) and 1X Penicillin-Streptomycin (Corning). After counting, the cell density was adjusted to 2 million cells/ml and incubated for 1 hour at 37° C., 5% CO2 for recovery. Following the recovery, the cells were plated by adding 50p per well (100,000 cells) to 384-well cell culture plates (Greiner) containing 250nl of test antagonists in 100% DMSO per well, in a 10 points dose response in quadruplicates. PBMCs were incubated in the presence of test antagonists for one hour at 37° C., 5% CO2 before being stimulated with a TLR7 or TLR9 agonist. GS-986 (Gilead Sciences) was used as the TLR7 agonist at a final concentration of 400 nM. ODN-2216 (InvivoGen) was used as the TLR9 agonist at a final concentration of 3μM. PBMCs were incubated in the presence of the test antagonist and the TLR7 (or TLR9) agonist for an additional 6 hours at 37° C., 5% CO2. At the end of the incubation, the cell culture plates were centrifuged at 500 g for 5 min, and the cell culture supernatant was collected. The level of cytokines (IL-6 and IFNα) in the supernatant was measured by electrochemiluminescence immunoassays (Mesoscale Discovery) following manufacturer's recommended protocols. The level of cytokine measured was plotted against the test antagonist concentration and fitted to a sigmoidal function to determine the EC50, which are shown below in Table 26.

TLR9 = target: T2, TLR9 (Homo sapiens, UniProt Q9NR96); assay: Human PBMC cell-based assay, TLR9 agonist ODN-2216 stimulation, cytokine (IL-6 and IFNα) readout; settings: human PBMCs, ODN-2216 3 μM, 6 hours; Table 26; read-out: TLR-9 EC50
T2 construct: lymphocytes, monocytes and dendritic cells that express TLR7, TLR8 and TLR9; endogenous in cells; host or cells: human PBMCs from healthy donors
T2 sequence (Q9NR96 26-1032): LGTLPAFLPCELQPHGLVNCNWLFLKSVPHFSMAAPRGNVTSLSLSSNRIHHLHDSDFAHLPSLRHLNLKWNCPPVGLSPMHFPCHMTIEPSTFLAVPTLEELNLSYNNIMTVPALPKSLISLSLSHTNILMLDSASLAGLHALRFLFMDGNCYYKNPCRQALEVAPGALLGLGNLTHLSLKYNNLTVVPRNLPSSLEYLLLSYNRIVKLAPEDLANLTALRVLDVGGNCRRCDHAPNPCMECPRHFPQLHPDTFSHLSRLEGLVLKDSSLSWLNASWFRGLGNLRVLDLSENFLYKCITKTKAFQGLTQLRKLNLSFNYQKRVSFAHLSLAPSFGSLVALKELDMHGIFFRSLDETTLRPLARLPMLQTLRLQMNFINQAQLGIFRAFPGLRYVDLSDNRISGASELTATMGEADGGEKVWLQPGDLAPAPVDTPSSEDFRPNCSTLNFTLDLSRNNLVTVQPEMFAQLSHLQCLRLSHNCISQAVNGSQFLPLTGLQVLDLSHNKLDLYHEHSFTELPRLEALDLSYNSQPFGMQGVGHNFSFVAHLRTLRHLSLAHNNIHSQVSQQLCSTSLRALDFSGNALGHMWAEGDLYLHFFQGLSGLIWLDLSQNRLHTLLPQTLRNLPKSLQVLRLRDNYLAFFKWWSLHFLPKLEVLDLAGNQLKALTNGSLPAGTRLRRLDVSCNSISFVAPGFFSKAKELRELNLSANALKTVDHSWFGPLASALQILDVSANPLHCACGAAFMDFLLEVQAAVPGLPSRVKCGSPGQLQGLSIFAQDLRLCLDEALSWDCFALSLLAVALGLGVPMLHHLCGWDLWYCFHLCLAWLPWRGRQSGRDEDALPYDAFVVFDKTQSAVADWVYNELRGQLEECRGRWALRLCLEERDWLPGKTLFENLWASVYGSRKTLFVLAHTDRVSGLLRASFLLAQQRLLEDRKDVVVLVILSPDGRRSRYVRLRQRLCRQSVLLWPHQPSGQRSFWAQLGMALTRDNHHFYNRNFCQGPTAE
From the text: as §1, §2

Row | SMILES | EC50 (TLR7) | EC50 (TLR9)
1 | Cc1cc(-c2[nH]c3cc(-c4ccc(N5C[C@H]6CC[C@@H](C5)[C@H]6N)nc4)ccc3c2C)cc(C)n1 [Example 27] | 196 nM | 55.2 nM
2 | Cc1cc(-c2[nH]c3cc(-c4cnc(N5CCNCC5)nc4)ccc3c2C2CC2)cc(C)n1 [Example 67] | 3 nM | 199 nM
3 | Cc1cc(-c2[nH]c3cc(-c4cccc(C(=O)N5CCNCC5)c4)ccc3c2C)cc(C)n1 [Example 12] | 103 nM | 47.3 nM
4 | Cc1cc(-c2[nH]c3cc(-c4ccc(C(=O)N5CC[C@H](N)C5)cc4)ccc3c2C)cc(C)n1 [Example 120, (S)-(3-aminopyrrolidin-1-yl)(4-(2-(2,6-dimethylpyridin-4-yl)-3-methyl-1H-indol-6-yl)phenyl)methanone] | 152 nM | 89.5 nM
5 | Cc1cc(-c2[nH]c3cc(-c4ccc5c(c4)ncn5C4CCNCC4)ccc3c2C)cc(C)n1 [Example 148, 5-[2-(2,6-dimethyl-4-pyridyl)-3-methyl-1H-indol-6-yl]-1-(4-piperidyl)benzimidazole] | 11.8 nM | 142 nM
6 | Cc1cc(-c2[nH]c3cc(-c4ccc(N5CCN(C(=O)[C@@H]6CC(F)(F)CN6)CC5)nc4)ccc3c2C)cc(C)n1 [Example 138] | 415 nM | 288 nM
7 | Cc1cc(-c2[nH]c3cc(-c4ccc(N5CCNCC5)nc4C)ccc3c2C)cc(C)n1 [Example 4] | 26.1 nM | 153 nM
8 | Cc1c(-c2cc(C)c3ncnn3c2)[nH]c2nc(C3CCNCC3)ccc12 [Example 153] | 108 nM | 1580 nM
9 | CC(=O)N1CCN(c2ccc(-c3ccc4c(C)c(-c5cc(C)nc(C)c5)[nH]c4c3)cn2)CC1 [Example 107] | 224 nM | 717 nM
10 | Cc1cc(-c2[nH]c3cc(-c4cnn(C5CCNCC5)c4)ccc3c2C)cc(C)n1 [Example 6] | 15.8 nM | 84.5 nM
11 | Cc1cc(-c2[nH]c3cc(-c4ccc(C5CCN(CCO)CC5)nc4)ccc3c2C)cc(C)n1 [Example 163] | 24.2 nM | 47.1 nM
12 | Cc1cc(-c2[nH]c3cc(-c4ccc(C(=O)N5CCN6CCC5C6)cc4)ccc3c2C)cc(C)n1 (stereo not shown) [Example 128] | 146 nM | 83.3 nM
13 | CNCC(=O)N1CCN(c2ccc(-c3ccc4c(C)c(-c5cc(C)nc(C)c5)[nH]c4c3)cn2)CC1 [Example 136] | 37.8 nM | 45.6 nM
14 | Cc1cc(-c2[nH]c3cc(-c4ccc(N5CCNCC5)nc4)ccc3c2C)c2ccccc2n1 [Example 90] | 29.8 nM | 753 nM
15 | Cc1c(-c2ccc(=O)n(C)c2)[nH]c2cc(-c3ccc(N4CCNCC4)nc3)ccc12 [Example 95, 1-methyl-5-(3-methyl-6-(6-(piperazin-1-yl)pyridin-3-yl)-1H-indol-2-yl)pyridin-2(1H)-one] | 102 nM | 288 nM
16 | Cc1cc(-c2[nH]c3cc(-c4ccc5c(c4)CC(N)C5)ccc3c2C)cc(C)n1 (stereo not shown) [Example 20] | 119 nM | 88.5 nM
17 | Cc1nn(C)cc1-c1[nH]c2cc(-c3ccc(N4CCNCC4)nc3)ccc2c1C [Example 88] | 317 nM | 2190 nM
18 | Cc1cc(-c2[nH]c3cc(-c4ccc(N5CCN(C(=O)CN)CC5)nc4)ccc3c2C)cc(C)n1 [Example 137] | 45.9 nM | 119 nM
19 | Cc1cc(-c2[nH]c3cc(-c4ccc5c(c4)CNCC5)ccc3c2C)cc(C)n1 [Example 14] | 213 nM | 108 nM
20 | Cc1cc(-c2[nH]c3cc(-c4ccc(N5CCN6CC(F)(F)C[C@H]6C5)nc4)ccc3c2C)cc(C)n1 [Example 144] | > 1000 nM | 727 nM
21 | Cc1cncc(-c2[nH]c3cc(-c4ccc(N5CCNCC5)nc4)ccc3c2C)c1 [Example 84] | 1990 nM | 964 nM
22 | Cc1cc(-c2[nH]c3cc(-c4ccc(N5CCNCC5)nc4)ccc3c2C)nc(C)n1 [Example 96] | 144 nM | 609 nM
23 | Cc1cc(-c2[nH]c3cc(-c4ccc5nc([C@@H]6N[C@H]7CC[C@@H]6C7)[nH]c5c4)ccc3c2C)cc(C)n1 [Example 195, 2-[(1S,3R,4R)-2-azabicyclo[2.2.1]heptan-3-yl]-6-[2-(2,6-dimethyl-4-pyridyl)-3-methyl-1H-indol-6-yl]-1H-benzimidazole] | 4.48 nM | –
24 | Cc1cc(-c2[nH]c3cc(-c4ccc5c(c4)CCCN5)ccc3c2C)cc(C)n1 [Example 43] | – | 1340 nM
25 | Cc1c(-c2cc(C)c3ncnn3c2)[nH]c2cc(-c3nc4ccccc4n3C)ccc12 [Example 194] | 631 nM | –
26 | Cc1c(-c2cc(C)c3ncnn3c2)[nH]c2cc(-c3ccc4nc([C@H]5N[C@@H]6CC[C@H]5C6)[nH]c4c3)ccc12 [Example 171] | 0.11 nM | –
27 | Cc1c(-c2cc(C)c3ncnn3c2)[nH]c2cc(-c3cnc4c(c3)CNCC4)ccc12 [Example 170] | 1.37 nM | –
28 | Cc1c(-c2cc(C)c3ncnn3c2)[nH]c2cc(-c3ccc4c(c3)ncn4C3CC4CC3CN4)ccc12 (stereo not shown) [Example 176] | 1.01 nM | –
29 | CCc1c(-c2cc(C)c3ncnn3c2)[nH]c2cc(-c3ccc(N4CCN(CC(N)=O)CC4)nc3)ccc12 [Example 177, 2-(4-(5-(3-ethyl-2-(8-methyl-[1,2,4]triazolo[1,5-a]pyridin-6-yl)-1H-indol-6-yl)pyridin-2-yl)piperazin-1-yl)acetamide] | 1.66 nM | –
30 | Cc1c(-c2cc(C)c3ncnn3c2)[nH]c2cc(-c3nc4ccccc4[nH]3)ccc12 [Example 193, 6-[6-(1H-benzimidazol-2-yl)-3-methyl-1H-indol-2-yl]-8-methyl-[1,2,4]triazolo[1,5-a]pyridine] | 483 nM | –

Source: patent US20250002471A1 (Gilead Sciences, Inc., priority 2020, published 2025)
